# Bridge positions count the residues as written; N and C are the ends. Square brackets hold non-standard residues; d marks the D form. Ends that are not written are not given here. Abu = CC[C@H](N)C(=O)O
# System: CCR2 transfected CHO-K1 cells
# Assay: Chemotaxis assay, 48-well microchemotaxis chamber
# Assay type: cell-based, avian
# Details: Fig. 9; n = 5
row,Substance,chemotactic activity for CCR2-CHO-K1 cells (in words)
1,"GPDSC^1NHDRGLC^2RVGNC^3NPGEYLAKYC^4FEPVILC^5C^6VRNRWA (bicyclic or more) [AvBD-12/6, group 3 hybrid peptide: backbone of AvBD-12 with amino acid residues of AvBD-6]",retained the chemotactic function
2,GPDS[Abu]NHDRGL[Abu]RVGNCNPGEYLAKY[Abu]FEPVIL[Abu]CKPLSPTPTKT (disulfide 17-35) [AvBD-12A5],lost their chemotactic activity
3,GPDS[Abu]NHDRGL[Abu]RVGN[Abu]NPGEYLAKY[Abu]FEPVIL[Abu][Abu]KPLSPTPTKT [AvBD-12A6],lost their chemotactic activity
4,GPHSANHVRGLARVGNANPGLYLAKYAFIPVILAAKPLSPTPTKT [AvBD-12A1],minimal chemotactic activity
5,GPRSANHKRGLARVGNANPGKYLAKYSFRPVILSSKPLSPTPTKT [AvBD-12A3],minimal chemotactic activity

# System: not given
# Assay: not given
# Details: not given
row,Substance,"chemotactic activity, % of wild type AvBD-12 [%]"
1,GPRSANHKRGLARVGNANPGKYLAKYSFRPVILSSKPLSPTPTKT [AvBD-12A3],> 50

# — paper PMC5324278, “Novel synthetic analogues of avian β-defensin-12: the role of charge, hydrophobicity, and disulfide bridges in biological functions” (BMC Microbiology, 2017)
